Laboratory results reported in patent publication US7235366B1 (priority 1993, dated 2007).
Read-outs that look alike come from different tables or passages of the source.

Assays:
[1] = target: T1, mouse delta opioid receptor aspartate 95 to asparagine mutant (Mus musculus, UniProt P32300, D95N); experiment: Binding to delta receptor mutant with aspartate 95 converted to asparagine, COS-7 cells
T1 construct: expressed in transfected cells; host or cells: COS-7

cloned rat μ receptor = target: T2, cloned rat μ receptor (Rattus norvegicus, UniProt P33535); experiment: biochemical; type: binding
T2 construct: expressed in transfected cells; host or cells: COS-7 (transient)

cloned mouse κ receptor = target: T3, cloned mouse κ receptor (Mus musculus, UniProt P33534); experiment: biochemical; type: binding
T3 construct: expressed in transfected cells

cloned mouse δ receptor = target: T4, cloned mouse δ receptor (Mus musculus, UniProt P32300); experiment: biochemical; type: binding
T4 construct: expressed in transfected cells

κ/δ2eloop chimera = type: binding
MOP2 [2] = target: T5, MOP2 (Mus musculus, UniProt P35377); type: cell-based
T5 construct: expressed in transfected cells; host or cells: COS-7 (transient)

[3] = target: T6, wild-type mouse delta opioid receptor (Mus musculus, UniProt P32300); experiment: biochemical; type: binding
T6 construct: expressed in transfected cells; host or cells: COS-7 (transient, pCMV6c)

[4] = target: T7, H278N mutant mouse delta opioid receptor (Mus musculus, UniProt P32300, H278N); experiment: biochemical; type: binding
T7 construct: expressed in transfected cells; host or cells: COS-7 (transient, pCMV6c)

[5] = target: T8, D128N mutant mouse delta opioid receptor (Mus musculus, UniProt P32300, D128N); experiment: biochemical; type: binding
T8 construct: expressed in transfected cells; host or cells: COS-7 (transient, pCMV6c)

MOP2 [6] = target: T5, MOP2; type: binding
[7] = target: kappa 1-74/delta65-372 chimera (Mus musculus, UniProt P32300+P33534, A193I/A281G/D128E/D204G/D206V/DEL208-209/DEL216-217/DEL300-312/E203D/E218S/E297A/F225V/F314L/G197A/G198V/I133A/I135L/I177L/I191V/I194M/I237V/I243T/I250L/I284V/I285V/I294L/I85V/INS221Y/INS293[…]/K200Q/K254R/K274R/L173A/L184V/L196M/L224T/L275M/L295V/M112L/M226T/M90L/N122E/N268S/R263K/S123T/S188G/S192P/S211M/T110S/T247G/T288A/T321A/V108A/V118K/V129L/V201P/V205A/V232L/V239I/V282A/V83G/Y219P/Y313H)
[8] = read-out: Binding potencies (Ki-nM) μ RECEPTOR [^3H] DAMGO
[9] = read-out: Binding potencies (Ki-nM) κ RECEPTOR [^3H] U-69, 593
[10] = read-out: Binding potencies (Ki-nM) δ RECEPTOR [^3H] naltrindole

T3 sequence (P33534 whole entry): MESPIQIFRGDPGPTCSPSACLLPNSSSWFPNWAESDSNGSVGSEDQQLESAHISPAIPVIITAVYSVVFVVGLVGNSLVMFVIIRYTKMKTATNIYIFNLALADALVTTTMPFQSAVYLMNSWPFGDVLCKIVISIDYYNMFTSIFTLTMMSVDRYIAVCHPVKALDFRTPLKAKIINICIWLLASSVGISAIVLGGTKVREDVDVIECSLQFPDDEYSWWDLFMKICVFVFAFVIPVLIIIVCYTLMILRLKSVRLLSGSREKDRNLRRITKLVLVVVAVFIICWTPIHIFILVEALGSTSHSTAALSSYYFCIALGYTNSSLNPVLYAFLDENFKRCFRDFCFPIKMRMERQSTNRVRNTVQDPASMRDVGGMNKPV
T5 sequence (P35377 whole entry): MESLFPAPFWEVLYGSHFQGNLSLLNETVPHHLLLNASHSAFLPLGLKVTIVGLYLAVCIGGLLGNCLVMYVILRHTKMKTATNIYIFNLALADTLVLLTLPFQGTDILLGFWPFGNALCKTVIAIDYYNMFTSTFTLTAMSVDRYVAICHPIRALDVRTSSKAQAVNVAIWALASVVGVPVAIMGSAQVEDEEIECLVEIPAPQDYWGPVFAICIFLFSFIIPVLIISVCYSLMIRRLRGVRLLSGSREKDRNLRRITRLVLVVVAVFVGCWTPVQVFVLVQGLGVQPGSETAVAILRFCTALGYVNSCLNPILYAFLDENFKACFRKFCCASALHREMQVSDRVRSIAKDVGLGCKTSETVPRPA
T8 sequence (P32300 whole entry D128N): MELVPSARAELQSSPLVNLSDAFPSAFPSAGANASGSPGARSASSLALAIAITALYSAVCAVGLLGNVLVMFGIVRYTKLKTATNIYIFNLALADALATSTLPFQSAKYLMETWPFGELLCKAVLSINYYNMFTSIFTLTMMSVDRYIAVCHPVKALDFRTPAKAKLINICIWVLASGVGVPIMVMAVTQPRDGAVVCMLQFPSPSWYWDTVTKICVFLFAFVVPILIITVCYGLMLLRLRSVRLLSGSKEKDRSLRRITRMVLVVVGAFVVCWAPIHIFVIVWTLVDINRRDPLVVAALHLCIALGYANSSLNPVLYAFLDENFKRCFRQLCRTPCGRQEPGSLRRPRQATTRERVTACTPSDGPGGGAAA
T7 sequence (P32300 whole entry H278N): as the sequence (P32300 whole entry D128N) above, with N128D, H278N counted along it
T4 sequence (P32300 whole entry): as the sequence (P32300 whole entry D128N) above, with N128D counted along it
T6 sequence (P32300 whole entry): as the sequence (P32300 whole entry D128N) above, with N128D counted along it
T2 sequence (P33535 whole entry): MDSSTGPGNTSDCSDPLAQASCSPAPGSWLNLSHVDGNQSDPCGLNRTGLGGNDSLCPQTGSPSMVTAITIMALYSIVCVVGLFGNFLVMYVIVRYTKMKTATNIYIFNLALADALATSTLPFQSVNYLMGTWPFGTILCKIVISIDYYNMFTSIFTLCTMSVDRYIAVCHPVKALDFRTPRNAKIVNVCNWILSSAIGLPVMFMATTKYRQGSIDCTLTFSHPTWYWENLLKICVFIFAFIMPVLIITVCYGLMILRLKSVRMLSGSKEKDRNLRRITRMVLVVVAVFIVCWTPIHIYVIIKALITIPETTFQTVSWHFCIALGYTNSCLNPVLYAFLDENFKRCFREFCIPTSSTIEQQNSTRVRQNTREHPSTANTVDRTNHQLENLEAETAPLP
T1 sequence (P32300 whole entry D95N): as the sequence (P32300 whole entry D128N) above, with D95N, N128D counted along it
Chain of kappa 1-74/delta65-372 chimera (P33534+P32300 fused with the stated changes): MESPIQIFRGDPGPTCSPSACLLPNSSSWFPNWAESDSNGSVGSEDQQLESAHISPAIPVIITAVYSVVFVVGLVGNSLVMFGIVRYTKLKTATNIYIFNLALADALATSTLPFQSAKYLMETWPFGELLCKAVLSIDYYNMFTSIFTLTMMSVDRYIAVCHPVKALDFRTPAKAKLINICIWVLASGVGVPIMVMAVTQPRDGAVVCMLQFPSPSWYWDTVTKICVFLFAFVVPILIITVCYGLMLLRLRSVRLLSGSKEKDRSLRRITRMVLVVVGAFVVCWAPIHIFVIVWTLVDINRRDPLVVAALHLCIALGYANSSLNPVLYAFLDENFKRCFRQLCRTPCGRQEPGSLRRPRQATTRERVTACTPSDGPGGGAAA

O=C1/C(=C/c2ccccc2)C[C@@]2(O)[C@H]3Cc4ccc(O)c5c4[C@@]2(CCN3CC2CC2)[C@H]1O5 [BNTX, 7-Benyllidenenaltrexone]
Affinity of aspartate 95 mutant and wild-type delta receptors compared [1]: similar | Ki (cloned rat μ receptor; [8]): 18 nM | Ki (cloned mouse κ receptor; [9]): 55 nM | Ki (cloned mouse δ receptor; [10]): 0.66 nM

C[C@@H](O)[C@H](NC(=O)[C@H]1NC(=O)[C@H]([C@@H](C)O)NC(=O)[C@H](CCCN)NC(=O)[C@@H](Cc2c[nH]c3ccccc23)NC(=O)[C@H](Cc2ccc(O)cc2)NC(=O)[C@@H](NC(=O)[C@H](N)Cc2ccccc2)CSSC1(C)C)C(N)=O [CTOP, D-Phe-Cys-Tyr-D-Trp-Orn-Thr-Pen-Thr-NH2]
Ki (cloned mouse κ receptor): > 1000 nM | Ki (cloned mouse δ receptor): > 1000 nM

CC(C)C[C@H](NC(=O)[C@H](Cc1ccccc1)NC(=O)CNC(=O)[C@@H](CO)NC(=O)[C@@H](N)Cc1ccc(O)cc1)C(=O)N[C@H](C(=O)O)[C@@H](C)O [DSLET, [D-Ser^2, Leu^5]enkephalin-Thr^6]
Ki (cloned rat μ receptor; Binding potencies (Ki-nM) μ RECEPTOR [^3H] DAMGO): 39 nM

CN1CC[C@@]23CCCC[C@@H]2[C@@H]1Cc1ccc(O)cc13 [Dextrorphan]
Ki (cloned mouse κ receptor): > 1000 nM | Ki (cloned mouse δ receptor): > 1000 nM

CC[C@H](C)[C@H](NC(=O)[C@H](CCCNC(=N)N)NC(=O)[C@H](CCCNC(=N)N)NC(=O)[C@H](CC(C)C)NC(=O)[C@H](Cc1ccccc1)NC(=O)CNC(=O)CNC(=O)[C@@H](N)Cc1ccc(O)cc1)C(=O)N[C@@H](CCCNC(=N)N)C(=O)N1CCC[C@H]1C(=O)N[C@@H](CCCCN)C(=O)N[C@@H](CC(C)C)C(=O)N[C@@H](CCCCN)C(=O)N[C@@H](Cc1c[nH]c2ccccc12)C(=O)N[C@@H](CC(=O)O)C(=O)N[C@@H](CC(N)=O)C(=O)N[C@@H](CCC(N)=O)C(=O)O [Dynorphin]
Binding to the κ/δ2eloop chimera (κ/δ2eloop chimera): did not bind

CC[C@]12CCN(CC3CC3)[C@H](C(=O)c3ccc(O)cc31)[C@@H]2C [Ethylketocyclazocine]
Effect on forskolin-stimulated cAMP formation, MOP2 (MOP2 [2]): no effect | Ki (cloned rat μ receptor): 3.1 nM | Ki (cloned mouse δ receptor): 101 nM

CN(C(=O)Cc1ccc(Cl)c(Cl)c1)C(CN1CCCC1)c1cccc(OCC(=O)O)c1 (stereo not drawn) [ICI 204, 448]
Ki (cloned rat μ receptor; [8]): > 1000 nM | Ki (cloned mouse κ receptor; [9]): 0.71 nM | Ki (cloned mouse δ receptor; [10]): > 1000 nM

CN1CC[C@]23CCCC[C@H]2[C@H]1Cc1ccc(O)cc13 [Levorphanol]
Effect on forskolin-stimulated cAMP formation, MOP2 (MOP2 [2]): no effect | Ki [3]: 187 nM | Ki [4]: 2.8 nM | Ki [5]: 4380 nM | Ki (cloned mouse κ receptor): 6.5 nM | Ki (cloned mouse δ receptor): 5 nM

Oc1ccc2c3c1O[C@H]1c4oc5ccccc5c4C[C@@]4(O)[C@@H](C2)N(CC2CC2)CC[C@]314 [NTB]
Ki ([3]; read-out: Potencies of Antagonist binding, Wild-type (Ki values in nM)): 0.04 nM | Ki ([4]; read-out: Potencies of Antagonist binding, H278N mutant (Ki values in nM)): 0.03 nM | Affinity of aspartate 95 mutant and wild-type delta receptors compared [1]: similar | Ki ([5]; read-out: Potencies of Antagonist binding, D128N mutant (Ki values in nM)): 0.07 nM | Ki (cloned rat μ receptor; [8]): 12 nM | Ki (cloned mouse κ receptor; [9]): 13 nM | Ki (cloned mouse δ receptor; [10]): 0.013 nM

CN1CC[C@]23c4c5ccc(O)c4O[C@H]2C(=O)C2(Cc4ccccc4C2)C[C@@]3(O)[C@H]1C5 [SIOM, 7-spiroindino-oxymorphone]
Ki ([3]; read-out: Potencies of Agonists to Bind, Wild-type (Ki values in nM)): 46 nM | Ki ([4]; read-out: Potencies of Agonists to Bind, H278N mutant (Ki values in nM)): 1.8 nM | Ki ([5]; read-out: Potencies of Agonists to Bind, D128N mutant (Ki values in nM)): 1220 nM | Ki (cloned rat μ receptor; [8]): 33 nM | Ki (cloned mouse κ receptor; [9]): > 1000 nM

C[C@@H](NC(=O)[C@@H](N)Cc1ccc(O)cc1)C(=O)NCC(=O)N(C)[C@@H](Cc1ccccc1)C(=O)NCCO [[^3H]DAMGO]
Specific binding of radioligand to MOP2 (MOP2 [6]): did not bind specifically

Oc1ccc2c3c1O[C@H]1c4[nH]c5ccccc5c4C[C@@]4(O)[C@@H](C2)N(CC2CC2)CC[C@]314 [[^3H]naltrindole]
Kd [3]: 0.6 ± 0.2 nM | Binding of radioligand to the kappa 1-74/delta65-372 chimera [7]: potently bound | Kd [4]: 0.2 ± 0.1 nM | Specific binding of radioligand to MOP2 (MOP2 [6]): did not bind specifically | Kd [5]: 1.3 ± 0.6 nM | Kd (cloned mouse δ receptor): 0.18 nM

CC(C)=CCN1CCC2(C)c3cc(O)ccc3CC1C2C (stereo not drawn) [^3H-pentazocine]
Specific binding of radioligand to MOP2 (MOP2 [6]): did not bind specifically

COc1ccc2c3c1O[C@H]1[C@@H](O)C=C[C@H]4[C@@H](C2)N(C)CC[C@@]341 [codeine]
Effect on forskolin-stimulated cAMP formation, MOP2 (MOP2 [2]): no effect | Ki (cloned mouse κ receptor): > 1000 nM | Ki (cloned mouse δ receptor): > 1000 nM
